According to publication PMC9611758, “Bioactive Platinum(IV) Complexes Incorporating Halogenated Phenylacetates” (Molecules, 2022):
Read-outs that look alike come from different tables or passages of the source.

Columns and labels:
[1] = parameters: method as in earlier work; conditions: heterocyclic ligand; cited from earlier work
panel of cell lines [2] = test: MTT growth inhibition assay, whole panel of cell lines; type: cell-based, human; conditions: platinum(IV) precursor less cytotoxic than platinum(II) precursor, all cell lines
HT29 colon [3] = tested on: HT29 colon; parameters: method as in PMID 36142383; conditions: MTT assay, 72 h; cited from earlier work
U87 glioblastoma = tested on: U87 glioblastoma; parameters: method as in PMID 36142383; conditions: MTT assay, 72 h; cited from earlier work
MCF-7 breast = tested on: MCF-7 breast; parameters: method as in PMID 36142383; conditions: MTT assay, 72 h; cited from earlier work
A2780 ovarian = tested on: A2780 ovarian; parameters: method as in PMID 36142383; conditions: MTT assay, 72 h; cited from earlier work
H460 lung = tested on: H460 lung; parameters: method as in PMID 36142383; conditions: MTT assay, 72 h; cited from earlier work
A431 skin = tested on: A431 skin; parameters: method as in PMID 36142383; conditions: MTT assay, 72 h; cited from earlier work
Du145 prostate [4] = tested on: Du145 prostate; parameters: method as in PMID 36142383; conditions: MTT assay, 72 h; cited from earlier work
BE2-C neuroblastoma = tested on: BE2-C neuroblastoma; parameters: method as in PMID 36142383; conditions: MTT assay, 72 h; cited from earlier work
SJ-G2 glioblastoma = tested on: SJ-G2 glioblastoma; parameters: method as in PMID 36142383; conditions: MTT assay, 72 h; cited from earlier work
MIA pancreas = tested on: MIA pancreas; parameters: method as in PMID 36142383; conditions: MTT assay, 72 h; cited from earlier work
[5] = tested on: non-tumour derived MCF10A breast line; parameters: method as in PMID 36142383; conditions: MTT assay, 72 h; cited from earlier work
[6] = tested on: ADDP-resistant ovarian variant; parameters: method as in PMID 36142383; conditions: MTT assay, 72 h; cited from earlier work
panel of cell lines [7] = tested on: panel of cell lines; parameters: method as in PMID 36142383; conditions: average over the cell lines tested, MTT assay, 72 h; cited from earlier work
HT29 colon cells [8] = tested on: HT29 colon cells; parameters: method as in PMID 36142383; conditions: cited from earlier work
HT29 colon cells [9] = test: ROS detection assay (DCFH-DA); type: cell-based, human; conditions: HT29 colon cells, treated at GI50 concentration (TBHP positive control 20 μM)
[10] = tested on: PC3 (prostate carcinoma) tumour xenografts; parameters: method as in PMID 18997969; conditions: PC3 xenograft mice; cited from earlier work
[11] = tested on: murine leukaemia cell line (L1210); conditions: cited from earlier work
HT29 colon [12] = test: MTT growth inhibition assay, HT29; type: cell-based, human
Du145 prostate [13] = test: MTT growth inhibition assay, Du145; type: cell-based, human; conditions: Du145 prostate, ratio of GI50 values
[14] = tested on: ADDP-resistant ovarian variant; test: MTT growth inhibition assay, ADDP; type: cell-based, human
[15] = tested on: murine leukaemia cell line (L1210); test: Cytotoxicity in L1210 (literature); type: cell-based; conditions: SS more cytotoxic than RR
From the text: Chirality is crucial to the biological activity of the studied complexes.

[16] = tested on: peritoneal carcinomatosis; parameters: method as in PMID 20535526; conditions: cited from earlier work

Cc1c(C)c2cccnc2c2ncccc12 [5,6-Me2phen, 5,6-dimethyl-1,10-phenanthroline]
pKa [1]: 5.6

Cc1c(C)c2c3c4c1=CC=C[N]4[Pt+2]([OH])([OH])[N]3C=CC=2.N[C@H]1CCCC[C@@H]1N [56MESS(IV)(OH)2]
fold difference in average GI50 versus corresponding platinum(II) precursor (panel of cell lines [2]): 4 fold | GI50 (HT29 colon [3]): 0.036 ± 0.007 µM | GI50 (U87 glioblastoma): 0.19 ± 0.023 µM | GI50 (MCF-7 breast): 0.48 ± 0.14 µM | GI50 (A2780 ovarian): 0.059 ± 0.007 µM | GI50 (H460 lung): 0.19 ± 0.15 µM | GI50 (A431 skin): 0.12 ± 0.022 µM | GI50 (Du145 prostate [4]): 0.015 ± 0.0026 µM | GI50 (BE2-C neuroblastoma): 0.24 ± 0.022 µM | GI50 (SJ-G2 glioblastoma): 0.21 ± 0.045 µM | GI50 (MIA pancreas): 0.043 ± 0.0025 µM | GI50 [5]: 0.061 ± 0.007 µM | GI50 [6]: 0.17 ± 0.12 µM | GI50 (panel of cell lines [7]): 0.151 ± 0.05 µM | ROS production 24 h (HT29 colon cells [8]): 259 ± 3 RFU | ROS production 48 h (HT29 colon cells [8]): 356 ± 11 RFU | ROS production 72 h (HT29 colon cells [8]): 438 ± 7 RFU

N.N.O=C([O-])C1(C(=O)[O-])CCC1.[Pt+2] [Carboplatin, cis-diammine(1,1-cyclobutanedicarboxylato) platinum(II)]
GI50 (HT29 colon [3]): > 50 µM | GI50 (U87 glioblastoma): > 50 µM | GI50 (MCF-7 breast): > 50 µM | GI50 (A2780 ovarian): 9.2 ± 2.9 µM | GI50 (H460 lung): 14 µM | GI50 (A431 skin): 24 µM | GI50 (Du145 prostate [4]): 15 µM | GI50 (BE2-C neuroblastoma): 19 µM | GI50 (SJ-G2 glioblastoma): 5.7 ± 0.2 µM | GI50 (MIA pancreas): > 50 µM | GI50 [5]: > 50 µM | GI50 [6]: > 50 µM

N.N.[Cl][Pt][Cl] [Cisplatin, Cis-diamminedichloroplatinum(II)]
ROS production 24 h (HT29 colon cells [9]; 24 h): 221 ± 10 RFU | ROS production 48 h (HT29 colon cells [9]; 48 h): 280 ± 12 RFU | ROS production 72 h (HT29 colon cells [9]; 72 h): 318 ± 9 RFU | GI50 (HT29 colon [3]): 11.3 µM | GI50 (U87 glioblastoma): 3.8 ± 1.1 µM | GI50 (MCF-7 breast): 6.5 ± 0.8 µM | GI50 (A2780 ovarian): 1 ± 0.1 µM | GI50 (H460 lung): 0.9 ± 0.2 µM | GI50 (A431 skin): 2.4 ± 0.3 µM | GI50 (Du145 prostate [4]): 1.2 ± 0.1 µM | GI50 (BE2-C neuroblastoma): 1.9 ± 0.2 µM | GI50 (SJ-G2 glioblastoma): 0.4 ± 0.1 µM | GI50 (MIA pancreas): 7.5 ± 1.3 µM | GI50 [5]: 5.2 ± 0.52 µM | GI50 [6]: 28 µM | GI50 (panel of cell lines [7]): 5.84 ± 0.61 µM | mean tumour weight in relation to the control group [10]: comparable decrease in mean tumour weight

Cc1c(C)c2c3c4c1=CC=C[N]4[Pt+2][N]3C=CC=2.N[C@@H]1CCCC[C@H]1N [Complex 56MERR]
GI50 [11]: 0.46 µM

Cc1c(C)c2cccnc2c2ncccc12.N[C@H]1CCCC[C@@H]1N.[Pt] [Complex 56MESS, [Pt^II(5,6-Me2phen)(SS-DACH)]^2+]
fold more reactive compared to cisplatin (HT29 colon [12]; HT29 colon, ratio of GI50 values): 1100 fold | fold increase in potency over carboplatin (Du145 prostate [13]): ~3300 fold | fold increase in potency over oxaliplatin (Du145 prostate [13]): 630 fold | fold more potent than cisplatin ([14]; ADDP-resistant ovarian variant, ratio of GI50 values): 2150 fold | fold difference in cytotoxicity between RR-DACH and SS-DACH enantiomer [15]: 51 fold | GI50 (HT29 colon [3]): 0.01 ± 0.0016 µM | GI50 (U87 glioblastoma): 0.035 ± 0.0064 µM | GI50 (MCF-7 breast): 0.093 ± 0.044 µM | GI50 (A2780 ovarian): 0.076 ± 0.057 µM | GI50 (H460 lung): 0.021 ± 0.002 µM | GI50 (A431 skin): 0.029 ± 0.001 µM | GI50 (Du145 prostate [4]): 0.0046 ± 0.0004 µM | GI50 (BE2-C neuroblastoma): 0.059 ± 0.004 µM | GI50 (SJ-G2 glioblastoma): 0.066 ± 0.022 µM | GI50 (MIA pancreas): 0.013 ± 0.002 µM | GI50 [5]: 0.016 ± 0.001 µM | GI50 [6]: 0.013 ± 0.002 µM | GI50 (panel of cell lines [7]): 0.036 ± 0.01 µM | GI50 [11]: 0.009 µM | ROS production 24 h (HT29 colon cells [8]): 240 ± 5 RFU | ROS production 48 h (HT29 colon cells [8]): 218 ± 3 RFU | ROS production 72 h (HT29 colon cells [8]): 255 ± 4 RFU | nephrotoxicity ([16]; at pharmacological doses): induced nephrotoxicity | tumour suppression response ([16]; intravenous and intraperitoneal treatment): did not elicit a tumour suppression response

C1=C[N]2[Pt+2][N]3C=CC=c4ccc(c2c43)=C1.N[C@@H]1CCCC[C@H]1N [PHENRR]
GI50 [11]: 1.5 µM

N[C@H]1CCCC[C@@H]1N.[OH][Pt+2]1([OH])[N]2C=CC=c3ccc4c(c32)[N]1C=CC=4 [PHENSS(IV)(OH)2]
fold difference in average GI50 versus corresponding platinum(II) precursor (panel of cell lines [2]): ~8 fold | GI50 (HT29 colon [3]): 0.71 ± 0.3 µM | GI50 (U87 glioblastoma): 4.9 ± 0.61 µM | GI50 (MCF-7 breast): 16 µM | GI50 (A2780 ovarian): 0.8 ± 0.084 µM | GI50 (H460 lung): 1.7 ± 0.2 µM | GI50 (A431 skin): 4.3 ± 0.53 µM | GI50 (Du145 prostate [4]): 0.31 ± 0.092 µM | GI50 (BE2-C neuroblastoma): 3 ± 0.53 µM | GI50 (SJ-G2 glioblastoma): 1.7 ± 0.35 µM | GI50 (MIA pancreas): 3.4 ± 2.2 µM | GI50 [5]: 1.7 ± 0.2 µM | GI50 [6]: 1.3 ± 0.35 µM | GI50 (panel of cell lines [7]): 3.32 ± 0.88 µM | ROS production 24 h (HT29 colon cells [8]): 144 ± 5 RFU | ROS production 48 h (HT29 colon cells [8]): 273 ± 4 RFU | ROS production 72 h (HT29 colon cells [8]): 303 ± 1 RFU

C1=C[N]2[Pt+2][N]3C=CC=c4ccc(c2c43)=C1.N[C@H]1CCCC[C@@H]1N [PHENSS, [Pt^II(phen)(SS-DACH)]^2+]
fold more reactive compared to cisplatin (HT29 colon [12]): 70 fold | fold more potent than cisplatin [14]: ~150 fold | fold difference in cytotoxicity between RR-DACH and SS-DACH enantiomer [15]: ~12 fold | GI50 (HT29 colon [3]): 0.16 ± 0.045 µM | GI50 (U87 glioblastoma): 0.98 ± 0.27 µM | GI50 (MCF-7 breast): 1.5 ± 0.5 µM | GI50 (A2780 ovarian): 0.23 ± 0.03 µM | GI50 (H460 lung): 0.36 ± 0.035 µM | GI50 (A431 skin): 0.48 ± 0.17 µM | GI50 (Du145 prostate [4]): 0.1 ± 0.038 µM | GI50 (BE2-C neuroblastoma): 0.38 ± 0.046 µM | GI50 (SJ-G2 glioblastoma): 0.33 ± 0.066 µM | GI50 (MIA pancreas): 0.2 ± 0.057 µM | GI50 [5]: 0.3 ± 0.058 µM | GI50 [6]: 0.19 ± 0.047 µM | GI50 (panel of cell lines [7]): 0.434 ± 0.11 µM | GI50 [11]: 0.13 µM | ROS production 24 h (HT29 colon cells [8]): 174 ± 2 RFU | ROS production 48 h (HT29 colon cells [8]): 172 ± 9 RFU | ROS production 72 h (HT29 colon cells [8]): 176 ± 7 RFU | mean tumour weight in relation to the control group [10]: comparable decrease in mean tumour weight | toxicity / mortality [10]: no obvious signs of toxicity

c1cnc2c(c1)ccc1cccnc12 [phen, 1,10-phenanthroline]
pKa [1]: 4.9
